# Assay results as given in patent US5079235A, “Antiviral compounds” (Burroughs Wellcome Co., priority 1986, dated 1992).
# Tests used:
# vaccinia = conditions: in vitro; cited from earlier work
# herpes simplex = conditions: in vitro; cited from earlier work
# [1] = test system: Human cytomegalovirus (HCMV); assay: Human cytomegalovirus (HCMV) plaque reduction assay in MRC5 or Detroit 532 cells; type: cell-based; conditions: for IC50: Human betaherpesvirus 5, HCMV, MRC5 or Detroit 532 cells, plaque reduction
# Procedure: Human cytomegalovirus (HCMV) is assayed in monolayers of either MRC5 cells (human embryonic lung) or Detroit 532 cells (human foreskin fibroblasts) in multiwell trays. Activity of compounds is determined in the plaque reduction assay, in which a cell monolayer is infected with a suspension of HCMV, and then overlaid with nutrient agarose in the form of a gel to ensure that there is no spread of virus throughout the culture. A range of concentrations of compound of known molarity was incorporated in the nutrient agarose overlay. Plaque numbers of each concentration are expressed as percentage of the control and a dose-response curve is drawn. From this curve the 50% inhibitory concentration (IC50) is estimated.
# [2] = test system: Varicella zoster virus (VZV); assay: Varicella zoster virus (VZV) assayed in MRC5 cells, plaque reduction method without agarose overlay; type: cell-based; conditions: for IC50: Human alphaherpesvirus 3, MRC5 cells
# [3] = Cell toxicity in Vero cell growth inhibition assay (MTT); type: cell-based; conditions: monkey; Vero cells, 50% inhibition of cell viability (MTT) at 96 hours; read-out: CCID50 at 96 hr
# Procedure: Cell toxicity is assessed in a cell growth inhibition assay. Subconfluent cultures of Vero cells grown on 96-well microtiter dishes are exposed to different dilutions of drug, and cell viability determined daily on replicate cultures using uptake of a tetrazolium dye (MTT). The concentration required for a 50% inhibition of cell viability at 96 hours is termed CCID50.
SMILES,antiviral activity against vaccinia (in words) (vaccinia),antiviral activity against herpes simplex (in words) (herpes simplex),activity against CMV (in words) ([1]; CMV),anti-VZV activity (in words) [2],IC50 [2] [µM],IC50 [1] [µM],CC50 at 96 h [3] [µM]
C#Cc1cn([C@H]2C[C@H](O)[C@@H](CO)O2)c(=O)[nH]c1=O [2'-deoxy-5-ethynyluridine],did not demonstrate any effect of use in human medicinal chemotherapy,did not demonstrate any effect of use in human medicinal chemotherapy,–,–,–,–,–
"C#Cc1cn([C@H]2C[C@H](O)[C@@H](CO)O2)c(=O)n(C(=O)c2ccccc2)c1=O [Example 1, 3-N-Benzoyl-2'-deoxy-5-ethynyluridine]",–,–,high activity against CMV,–,–,–,–
"CC#Cc1cn([C@H]2C[C@H](O)[C@@H](CO)O2)c(=O)nc1N [Example 2, 2'-Deoxy-5-propynylcytidine]",–,–,–,potent anti-VZV activity,3.3,> 20,> 300
"CC#Cc1cn([C@H]2C[C@H](O)[C@@H](CO)O2)c(=O)n(C(=O)c2ccccc2)c1=O [Example 4, 3-N-Benzoyl-2'-deoxy-5-propynyluridine]",–,–,–,potent anti-VZV activity,2.2,28.5,> 500
